{
  "source": "patent US5028586A",
  "about": "“Insulin derivatives and pharmaceutical preparations containing these derivatives” (Novo Norkisk A/S, priority 1985, dated 1991)",
  "test_system": "guinea pigs",
  "assay": "Protracted hypoglycemia in guinea pigs after subcutaneous injection of insulin derivative preparations",
  "type": "in vivo",
  "description": "25 ml of a medium containing 1.6 %(w/v) of glycerol. 0.33 % (w/v) of m-cresol, 1/75 M of sodium phosphate, pH value 7.3, were prepared. The solution was sterilized by filtration. 1.5 mg of human insulin-B21-methyl ester, prepared as described in Example 1, were suspended in 1.0 ml of medium.\n4.5 mg of human insulin-A17-methyl ester were dissolved in 2.7 ml of 0.015 M phosphoric acid. 21 mg of sodium chloride and 4.1 μliters of an aqueous solution of 152 mM zinc chloride were added. The solution was sterilized by filtration. The pH value of the solution was adjusted to 8.0 under aseptic conditions with a sterile aqueous solution of sodium hydroxide. The pH value of the solution was then readjusted to 7.3 with sterile hydrochloric acid, and rhombohedral crystals with a mean size of 10 μm were formed with gentle stirring at 21° C. The volume was adjusted to 3 ml with sterile water.\nMoreover, a sterile solution of 3 ml of 13.5 mM phosphoric acid in admixture with 21 mg of sodium chloride and 9 μliters of m-cresol was prepared, and the pH value was adjusted to 7.3 with a sterile aqueous solution of sodium hydroxide. The two solutions were combined.\n15 mg of human insulin-A4-gln, obtained as described in Example 5, was dissolved in 10 ml of a solution containing 13.5 mM phosphoric acid, 0.3 % m-cresol and 1.6 % glycerol. The solution was sterilized by filtration, and the pH value was adjusted to 9,0 with a sterile solution of sodium hydroxide. The pH value was readjusted to 8.2 with a sterile solution of hydrochloric acid, and human insulin-A4-gln crystallized as rhombohedral crystals with gentle stirring.",
  "data": [
    {"substance": "human insulin-A4-gln", "values": [
      {"measurement": "protracted hypoglycemic effect compared with \"Insulatard\"", "setting": "subcutaneous injection of crystalline suspension at 0.5 IU/kg, \"Insulatard\" at 0.5 IU/kg", "result": "nearly identical both in timing and amplitude"}
    ]},
    {"substance": "human insulin-A17-methyl ester", "values": [
      {"measurement": "biological activity (area below the blood glucose curve) compared with human insulin", "setting": "dosage 18 μg/kg, crystalline zinc preparation", "result": "nearly the same biological activity as human insulin"},
      {"measurement": "protracted insulin action compared with \"Insulatard\"", "setting": "dosage 18 μg/kg, crystalline zinc preparation, comparator \"Insulatard\"", "result": "longer than the protracted action of the known injection preparation"},
      {"measurement": "hypoglycemia induced", "setting": "dosage 18 μg/kg, crystalline zinc preparation, pH 7.3", "result": "strongly protracted hypoglycemia"}
    ]},
    {"substance": "human insulin-B21-methyl ester", "values": [
      {"measurement": "protracted insulin action compared with \"Insulatard\"", "setting": "subcutaneous, zinc-free preparation, comparator standard protamin insulin preparation \"Insulatard\"", "result": "comparable to the hypoglycemia observed after injection of a standard protamin insulin preparation"},
      {"measurement": "hypoglycemia after subcutaneous administration", "setting": "subcutaneous, zinc-free suspension 1.5 mg in 1.0 ml medium, pH 7.3", "result": "protracted hypoglycemia was observed"}
    ]}
  ]
}
